# Measured values taken from publication PMC5049701 (Nature chemical biology, 2016).
# Molecular target: T1, FsqB (Aspergillus fumigatus, UniProt Q4WD43)
# T1 sequence (Q4WD43 1-497): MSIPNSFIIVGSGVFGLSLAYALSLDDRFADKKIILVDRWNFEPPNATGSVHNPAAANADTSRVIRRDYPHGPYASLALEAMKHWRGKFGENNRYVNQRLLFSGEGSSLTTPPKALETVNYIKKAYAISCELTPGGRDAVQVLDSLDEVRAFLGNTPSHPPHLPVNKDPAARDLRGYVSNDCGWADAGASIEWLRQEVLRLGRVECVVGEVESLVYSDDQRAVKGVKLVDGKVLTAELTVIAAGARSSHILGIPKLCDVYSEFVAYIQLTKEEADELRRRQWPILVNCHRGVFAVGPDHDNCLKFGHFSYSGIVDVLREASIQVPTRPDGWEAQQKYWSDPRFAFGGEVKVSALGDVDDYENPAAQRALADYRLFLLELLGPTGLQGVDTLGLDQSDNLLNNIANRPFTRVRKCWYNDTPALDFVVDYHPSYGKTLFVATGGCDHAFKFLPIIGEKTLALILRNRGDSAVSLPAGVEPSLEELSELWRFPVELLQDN
# Assay: tryptic digest UHPLC-MS/MS
# Type: binding
# Details: covalent, bound to cysteine-414
compound,measurement,value
Cc1cc2nc3c(=O)[nH]c(=O)nc-3n(C[C@H](O)[C@H](O)[C@H](O)COP(=O)(O)OP(=O)(O)OC[C@H]3O[C@@H](n4cnc5c(N)ncnc54)[C@H](O)[C@@H]3O)c2cc1C [FAD],tryptic digest UHPLC-MS/MS; flavin fluorescence,"presence of FAD, which was found to be covalently bound to cysteine-414"
